According to US9562024B2, “Vortioxetine salt and crystal thereof, their preparation method, pharmaceutical compositions and usage” (HANGZHOU PUSHAI PHARMACEUTICAL TECHNOLOGY CO., LTD, priority 2013, dated 2017):
Counter-ions that a name gives are not always drawn. Values belong to the molecule of their own block, whether it stands above or below them.

Columns and labels:
Type in all cases: physicochemical
[1] = Inventors' studies of the known crystalline forms of vortioxetine hydrobromide of WO2007/144005A1
Excerpt: In studies, the inventors of the present invention found out that the multiple crystalline forms of vortioxetine hydrobromide disclosed in WO2007/144005A1 have the following disadvantages: […]

[2] = Hygroscopicity comparison (DVS isothermal sorption); conditions: relative humidity range 20%-80%
Description: Dynamic vapor sorption (DVS) data were collected using TA Instruments Q5000 TGA. The instrument control software was Thermal Advantage, and the analytical software was Universal Analysis. Usually, 1-10 mg of the sample was placed in a platinum pan and the weight change of the sample during experiments was recorded. The relative humidity was usually programmed to change from 20% to 80% and then back to 20%, and an isothermal sorption curve could be generated. Depending on specific situations, different sorption and desorption procedures might be used.
Hygroscopicity comparison: DVS isothermal sorption curves were used, and weight changes within the 20%-80% RH range were measured.

[3] = Stability competition test (competitive slurry, XRPD); conditions: for Stability Competition Test: crystalline form after competitive slurry (XRPD): equal quantities of both forms slurried 7 days in ethanol or water; for Stability competition test: crystalline form after slurry: slurried in water or ethanol
Description: Stability competition test: An equal quantity (250 mg) of the crystalline vortioxetine hemihydrobromide form of the present invention prepared in example 4 and the β Form of vortioxetine hydrobromide prepared in preparation example 2 were respectively added to 3 mL of ethanol or water to produce suspensions. No solvate was formed in ethanol or water. The suspensions were slurried for 7 days at room temperature or at 60° C., and then XRPD characterization analyses were performed.

[4] = Dissolution comparison of sustained-release tablets, Example 144; conditions: water, 37° C.
Description: The crystalline form of vortioxetine hemihydrobromide of the present invention and the β Form of vortioxetine hydrobromide prepared in preparation example 2 were tableted by the method of example 141 and then subjected to dissolution comparison. Water was used as the dissolution medium. Parameter setting of the dissolution tester: The temperature was 37° C. The rotate speed of the stirring paddle was 50 r/min. Take 3 ml of the dissolution medium out at 0.5, 1, 2, 6 and 12 hours respectively. Each time after sampling, 3 mL of water was added back to the dissolution medium to supplement the volume. The concentration of the dissolution medium at each time point was determined by HPLC.

[5] = Dissolution of tablets (paddle method, water), Example 140; conditions: 37° C.
Description: The crystalline form of vortioxetine hemihydrobromide of the present invention, the β Form of vortioxetine hydrobromide prepared in preparation example 2 and the β Form of vortioxetine hydrobromide containing 20% of the crystalline form of vortioxetine hemihydrobromide of the present invention were tableted by the method in example 105 and then subjected to phase stability comparison. Dissolution was determined by reference to the dissolution conditions of Benorilate Tablets described in 2010 Chinese Pharmacopoeia. The paddle method was used with the paddle rotation speed at 50 r/min. 900 mL of water was the dissolution medium. The temperature was 37° C. Take 3 mL of the dissolution medium for sampling at 2, 10, 20, 40 and 60 min respectively. Each time after sampling, 3 mL of water was added back to dissolution medium to supplement the volume. The concentration of the dissolution medium at each time point was measured by HPLC, and the dissolution profile was plotted.

[6] = high-temperature conditions, hydrobromide

- Stability of the crystalline form ([1]; high-humidity conditions): transformed to hydrate
- Stability of the crystalline form [1, 6]: lost ethyl acetate
SMILES: Cc1ccc(Sc2ccccc2N2CCNCC2)c(C)c1 [ethyl acetate solvate of vortioxetine hydrobromide]

- Stability of the crystalline form [1, 6]: lost water
SMILES: Cc1ccc(Sc2ccccc2N2CCNCC2)c(C)c1 [hydrate of vortioxetine hydrobromide, vortioxetine hydrobromide]

- Hygroscopicity Comparison (weight change) ([2]; listed as the known β Form of vortioxetine hydrobromide, hydrobromide): 0.60%
- Cumulative dissolution ([4]; sustained-release tablets by method of example 141, paddle 50 r/min, 0.5 hours, hydrobromide): 50.0%
- Cumulative dissolution ([4]; sustained-release tablets, 12 hours, hydrobromide): 100.0%
SMILES: Cc1ccc(Sc2ccccc2N2CCNCC2)c(C)c1 [the β Form of vortioxetine hydrobromide, 1-[2-(2,4-dimethylphenylsulfanyl)phenyl]piperazine hydrobromide]
- Stability Competition Test: crystalline form after competitive slurry (XRPD) ([3]; 60° C., listed as the known β Form of vortioxetine hydrobromide, hydrobromide): completely transformed into the vortioxetine hemihydrobromide crystalline form of the present invention
- Stability Competition Test: crystalline form after competitive slurry (XRPD) ([3]; room temperature, listed as the known β Form of vortioxetine hydrobromide, hydrobromide): completely transformed into the vortioxetine hemihydrobromide crystalline form of the present invention
- Stability competition test: crystalline form after slurry ([3]; temperature not stated at the place, hydrobromide): transformed to the vortioxetine hemihydrobromide crystalline form of the present invention
- Stability competition test: crystalline form after slurry ([3]; temperature not stated at the place, listed as β Form of vortioxetine hydrobromide, hydrobromide): failed to maintain its original crystalline form
- Stability competition test: crystalline form after slurry ([3]; temperature not stated, listed as the known β Form of vortioxetine hydrobromide, hydrobromide): completely transformed to the crystalline vortioxetine hemihydrobromide of the present invention

- Hygroscopicity Comparison (weight change) ([2]; listed as Example 4, hemihydrobromide): 0.28%
- Hygroscopicity Comparison (weight change) ([2]; listed as the vortioxetine hemihydrobromide crystalline form of the present invention, hemihydrobromide): 0.28%
- Stability Competition Test: crystalline form after competitive slurry (XRPD) ([3]; 60° C., listed as the vortioxetine hemihydrobromide crystalline form of the present invention, hemihydrobromide): kept unchanged
- Stability Competition Test: crystalline form after competitive slurry (XRPD) ([3]; room temperature, listed as the vortioxetine hemihydrobromide crystalline form of the present invention, hemihydrobromide): invention kept unchanged”
- Stability competition test: crystalline form after slurry ([3]; temperature not stated, hemihydrobromide): keeping its crystalline form unchanged
- Cumulative dissolution ([4]; sustained-release tablets by method of example 141, paddle 50 r/min, 0.5 hours, hemihydrobromide): 8.1%
- Cumulative dissolution ([5]; tablets by method of example 105, 900 mL water, paddle 50 r/min, 2 min, hemihydrobromide): 8.2%
- Cumulative dissolution ([5]; tablets, water, 60 min): 100.0%
SMILES: Cc1ccc(Sc2ccccc2N2CCNCC2)c(C)c1 [vortioxetine hemihydrobromide]

SMILES: Cc1ccc(Sc2ccccc2N2CCNCC2)c(C)c1 [α Form of vortioxetine hydrobromide, vortioxetine hydrobromide]
- Stability of the crystalline form ([1]; room temperature): transformed to the β Form of vortioxetine hydrobromide
